Laboratory results from paper PMC5085792, “Seeking for Non-Zinc-Binding MMP-2 Inhibitors: Synthesis, Biological Evaluation and Molecular Modelling Studies” (International Journal of Molecular Sciences, 2016).

Columns and labels:
[1] = target: T1, catalytic domain of MMP-2 (Homo sapiens, UniProt P08253); assay: MMP-2 enzyme inhibition assay (fluorogenic substrate); assay type: biochemical; settings: for IC50: mean ± SEM of at least three independent measurements in triplicate
T1 construct: The catalytic domains of MMP-2, MMP-8 and MMP-13 were purchased from Enzo Life Sciences; purchased Enzo Life Sciences (Lörrach, Germany)
T1 sequence (P08253 110-446 limits assumed): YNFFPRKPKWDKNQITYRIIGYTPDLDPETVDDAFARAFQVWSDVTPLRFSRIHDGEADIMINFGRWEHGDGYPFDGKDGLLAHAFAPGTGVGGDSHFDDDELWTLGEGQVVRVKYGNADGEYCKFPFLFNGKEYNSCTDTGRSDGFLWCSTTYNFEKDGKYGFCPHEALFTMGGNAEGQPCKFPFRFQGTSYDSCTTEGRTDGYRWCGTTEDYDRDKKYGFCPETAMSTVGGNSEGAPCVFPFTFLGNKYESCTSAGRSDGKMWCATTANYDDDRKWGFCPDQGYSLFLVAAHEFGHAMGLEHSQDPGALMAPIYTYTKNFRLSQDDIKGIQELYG
Method: (§1) The synthesized compounds were submitted to MMP inhibition assays. A dose/response preliminary screening was performed at 100 µM by registering the residual enzyme activity on MMP-2, MMP-8 and MMP-13 (Figure 4). Compounds showing a percentage of inhibition higher than 50% were submitted to IC50 calculation.
(§2) The catalytic domains of MMP-2, MMP-8 and MMP-13 were purchased from Enzo Life Sciences (Lörrach, Germany). The assays were performed in triplicate in 96-well white microtiter plates (Corning, NBS; Corning, NY, USA). For assay measurements, inhibitor stock solutions (DMSO, 10 mM) were diluted to six different concentrations (1 nM–100 µM) in fluorometric assay buffer (50 mM Tris·HCl pH 7.5, 200 mM NaCl, 1 mM CaCl2, 1 µM ZnCl2, 0.05% Brij-35 and 1% DMSO). Enzyme and inhibitor solutions were incubated in the assay buffer for 15 min at room temperature before the addition of the fluorogenic substrate solution (OmniMMP® = Mca-Pro-Leu-Gly-Leu-Dpa-Ala-Arg-NH2, Enzo Life Sciences, 2.5 µM final concentration or OmniMMP®RED = TQ3-GABA-Pro-Cha-Abu-Smc-His-Ala-Dab(6’-TAMRA)-Ala-Lys-NH2, (TAMRA: tetramethylrhodamine) Enzo Life Sciences, 1 µM final concentration). After further incubation for 2–4 h at 37 °C, fluorescence was measured (λex = 340 nm, λem = 405 nm or λex = 545 nm, λem = 572 nm) using a Perkin-Elmer Victor V3 plate reader (Waltham, MA, USA). Control wells lacked inhibitor. The MMP inhibition activity was expressed in relative fluorescence units (RFU). Percent inhibition was calculated from control reactions without inhibitor; IC50 values were determined using GraphPad Prism version 5.0f and are expressed as the mean ± SEM of at least three independent measurements in triplicate.

[2] = target: T2, catalytic domain of MMP-8 (Homo sapiens, UniProt P22894); assay: MMP-8 enzyme inhibition assay (fluorogenic substrate); assay type: biochemical; settings: mean ± SEM of at least three independent measurements in triplicate
T2 construct: The catalytic domains of MMP-2, MMP-8 and MMP-13 were purchased from Enzo Life Sciences; purchased Enzo Life Sciences (Lörrach, Germany)
T2 sequence (P22894 100-262 limits assumed): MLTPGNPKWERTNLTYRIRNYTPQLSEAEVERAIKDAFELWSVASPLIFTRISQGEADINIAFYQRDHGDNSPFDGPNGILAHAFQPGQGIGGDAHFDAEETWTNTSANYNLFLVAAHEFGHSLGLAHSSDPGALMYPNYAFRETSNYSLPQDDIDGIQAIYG
Method: as §1, §2

[3] = target: T3, catalytic domain of MMP-13 (Homo sapiens, UniProt P45452); assay: MMP-13 enzyme inhibition assay (fluorogenic substrate); assay type: biochemical; settings: mean ± SEM of at least three independent measurements in triplicate
T3 construct: The catalytic domains of MMP-2, MMP-8 and MMP-13 were purchased from Enzo Life Sciences; purchased Enzo Life Sciences (Lörrach, Germany)
Method: as §1, §2

[4] = system: MMP-2; set-up: method as in PMID 23873724; settings: previous work, virtual screening hits; cited from earlier work
[5] = system: MMP-8; set-up: method as in PMID 23873724; settings: previous work, virtual screening hits; cited from earlier work
[6] = system: MMP-13; set-up: method as in PMID 23873724; settings: previous work, virtual screening hits; cited from earlier work

Row | Structure (SMILES) | melting point | also measured
1 | O=C(NCc1ccccc1)Nc1ccnc2ccccc12 [Compound 1b] | 167 to 169 °C | –
2 | O=C(NCc1ccccc1)Nc1cccc2ncccc12 [Compound 1c] | 251 °C (dec.) | IC50 [1]: 55 ± 1 µM; IC50 [2]: > 100 µM; IC50 [3]: 58 ± 1 µM
3 | O=C(NCc1ccccc1)Nc1nccc2ccccc12 [Compound 1e] | 164 to 165 °C | –
4 | O=C(NCc1ccccc1)Nc1cc2ccccc2cn1 [Compound 1f] | 168 to 170 °C | –
5 | O=C(NCc1ccccc1)Nc1cncc2ccccc12 [Compound 1g] | 235 to 237 °C | IC50 [1]: 74 ± 3 µM; IC50 [2]: > 100 µM; IC50 [3]: 73 ± 11 µM
6 | O=C(NCc1ccccc1)Nc1cccc2cnccc12 [Compound 1h] | 248 to 249 °C | IC50 [1]: 15 ± 4 µM; IC50 [2]: > 100 µM; IC50 [3]: 14 ± 4 µM
7 | O=C(NCc1ccccc1)Nc1cccc2ccncc12 [Compound 1i] | 206 to 208 °C | MMP inhibition activity (in words) ([1]; preliminary screening at 100 µM, isoform not given, MMP-2): inactive
8 | O=C(NCc1ccccc1)Nc1ccc2[nH]ccc2c1 [Compound 1j] | 197 to 198 °C | –
9 | O=C(NCc1ccccc1)Nc1ccc2cc[nH]c2c1 [Compound 1k] | 211 to 213 °C | –
10 | O=C(NCc1ccccc1)Nc1ccc2[nH]ncc2c1 [Compound 1l] | – | IC50 [1]: 86 ± 2 µM; IC50 [2]: > 100 µM; IC50 [3]: 98 ± 2 µM
11 | O=C(NCc1ccccc1)Nc1ccc2cn[nH]c2c1 [Compound 1m] | 198 to 199 °C | –
12 | O=C(NCc1ccccc1)Nc1cccc2ccccc12 [Compound 1n] | 196 to 197 °C | –
13 | O=C(NCc1ccccc1)Nc1ccc2ccccc2c1 [Compound 1o] | 208 to 210 °C | –
14 | O=C(NCc1ccccc1)Nc1ccccn1 [Compound 1p] | 148 to 150 °C | –
15 | O=C(NCc1ccccc1)Nc1cccnc1 [Compound 1q] | 154 to 156 °C | –
16 | O=C(NCc1ccccc1)Nc1ccc(O)cc1 [Compound 1s] | 177 to 179 °C | –
17 | COc1cccc(CNC(=O)NCc2ccccc2)c1OC [Compound 1t] | 149 °C | –
18 | COc1ccc(CNC(=O)NCc2ccccc2)cc1OC [Compound 1u] | 127 °C | –
19 | CC(NC(=O)NCc1ccccc1)c1ccccc1 (stereo not drawn) [Compound 1w] | 116 to 118 °C | –
20 | O=C(NCc1ccccc1)NN1CCCC1 [Compound 1z] | 124 to 126 °C | –
21 | O=C(Cc1ccccc1)Nc1cccc2cnccc12 [Compound 2a] | 186 to 188 °C | –
22 | O=C(CCc1ccccc1)Nc1cccc2cnccc12 [Compound 2b] | 133 to 135 °C | –
23 | O=C(NCc1ccccc1)c1cccc2cnccc12 [Compound 2c] | 182 to 183 °C | –
24 | O=C(NCCc1ccccc1)c1cccc2cnccc12 [Compound 2d] | 120 to 121 °C | –
25 | O=S(=O)(Nc1ccc2cnccc2c1)c1ccccc1 [Compound 2e] | 228 to 230 °C | –
26 | O=C(NCc1ccc(NS(=O)(=O)c2ccccc2)cc1)Nc1cccc2cnccc12 [Compound 5] | 117 to 119 °C | IC50 [1]: 54 ± 7 µM; IC50 [2]: 88 ± 5 µM; IC50 [3]: 55 ± 7 µM
27 | O=C(NCc1ccc(NC(=O)c2ccccc2)cc1)Nc1cccc2cnccc12 [Compound 7] | 200 to 202 °C | IC50 [1]: 7.4 ± 0.8 µM; IC50 [2]: 48.5 ± 1.6 µM; IC50 [3]: 6.6 ± 0.4 µM
28 | O=C(NCc1ccco1)Nc1c[nH]c2cccnc2c1=O [Hit 1] | – | IC50 [4]: 5 µM; IC50 [5]: 75 µM; IC50 [6]: 36 µM
29 | O=C(NCc1ccco1)Nc1c[nH]c2ccc(F)cc2c1=O [Hit 2] | – | IC50 [4]: 15 µM; IC50 [5]: 105 µM; IC50 [6]: 5 µM
